According to US7989483B2, “4-heteroarylimidazole-2-thione tyrosinase inhibitors and pharmaceutical/cosmetic applications thereof” (Galderma Research & Development, priority 2007, dated 2011):

Molecular target: T1, tyrosinase (Mus musculus, UniProt P11344)
T1 construct: the supernatant obtained constitutes the cell lysate used as tyrosinase source in the enzymatic assay; endogenous in cells; host or cells: B16F1 murine melanoma cells (alpha-MSH stimulated), detergent lysate supernatant
T1 sequence (P11344 19-533): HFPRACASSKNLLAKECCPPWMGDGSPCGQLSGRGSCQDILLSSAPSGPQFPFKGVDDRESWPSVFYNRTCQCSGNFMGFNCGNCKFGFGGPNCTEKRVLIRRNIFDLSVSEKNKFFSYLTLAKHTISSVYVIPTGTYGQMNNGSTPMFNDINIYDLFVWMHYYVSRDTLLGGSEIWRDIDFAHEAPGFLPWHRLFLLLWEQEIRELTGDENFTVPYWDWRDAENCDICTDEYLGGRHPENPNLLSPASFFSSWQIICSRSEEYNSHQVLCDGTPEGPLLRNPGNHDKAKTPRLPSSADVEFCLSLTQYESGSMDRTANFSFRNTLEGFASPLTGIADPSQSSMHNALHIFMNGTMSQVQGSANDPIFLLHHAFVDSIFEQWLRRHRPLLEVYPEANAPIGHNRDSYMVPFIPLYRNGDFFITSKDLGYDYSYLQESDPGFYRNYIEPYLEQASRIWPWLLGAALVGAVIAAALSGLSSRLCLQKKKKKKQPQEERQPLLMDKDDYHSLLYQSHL
Assay: Tyrosinase activity inhibition assay (B16F1 cell lysate, L-tyrosine substrate, MBTH, 520 nm)
Type: biochemical
Settings: lysate of B16F1 cells (murine melanoma line), L-DOPA cofactor, 37° C., reading at 520 nm after 6 hours, read-out: Tyrosine hydroxylase/Dopa oxidase IC50
Experimental: The activity of the inhibitors is measured starting from a lysate of B16F1 cells (murine melanoma line). In the presence of the L-tyrosine substrate, the tyrosinase present in these cells catalyses the hydroxylation of L-tyrosine to give L-DOPA and then the oxidation of the L-DOPA to give dopaquinone. In the presence of MBTH (3-methyl-2-benzothiazolinone hydrazone), the dopaquinone is trapped so as to form a pink complex which absorbs at 520 nm.
The B16F1 cells are cultured in DMEM medium+10% foetal calf serum+10^−9 M α-MSH for 4 days at 37° C. under 7% CO2. They are treated with trypsin, washed with PBS, counted and pelleted. The pellet is taken up at 10^7 cells/ml in lysis buffer (10 mM sodium phosphate, pH 6.8-1% Igepal) and the suspension is treated with ultrasound for 10 seconds. After centrifugation for 30 minutes at 4000 rpm, the supernatant obtained constitutes the cell lysate used as tyrosinase source in the enzymatic assay.
The assays are carried out in duplicate in 384-well plates in a total volume of 50 μl. Each well contains: […]
The plate is incubated at 37° C. and a spectrophotometric reading is carried out at 520 nm after incubating for 6 hours. To avoid any possible absorption of the products, the system uses corrected absorbance (absorbance at time 6 h—absorbance at time zero). […]

Row | IC50 [nM] | Compound
1 | 100 | Cc1csc(-c2c[nH]c(=S)[nH]2)c1 [Compound 4, 4-(4-methylthiophen-2-yl)-1,3-dihydro-imidazole-2-thione]
2 | 300 | Cc1ccc(-c2c[nH]c(=S)[nH]2)s1 [Compound 3, 4-(5-methylthiophen-2-yl)-1,3-dihydroimidazole-2-thione]
